# Results from PubChem BioAssay (NCI).
#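 Method: 48-hour compound exposure of cells in 96-well plates, five concentrations, linear interpolation of endpoints. TGI marks complete inhibition of growth.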
# Tests used:
# Assay in all cases: inhibition of tumour cell growth, NCI panel, 48 h
# MOLT-4 leukemia = tested on: MOLT-4 leukemia
# HT29 colon = tested on: HT29 colon
# NCI-H23 lung = tested on: NCI-H23 lung
# HCT-116 colon = tested on: HCT-116 colon
# RXF-631 renal = tested on: RXF-631 renal
# M14 melanoma = tested on: M14 melanoma
# NCI-H522 lung = tested on: NCI-H522 lung
# U251 CNS = tested on: U251 CNS
# KM12 colon = tested on: KM12 colon
# OVCAR-8 ovarian = tested on: OVCAR-8 ovarian
# SK-MEL-28 melanoma = tested on: SK-MEL-28 melanoma
# SK-MEL-2 melanoma = tested on: SK-MEL-2 melanoma
# COLO 205 colon = tested on: COLO 205 colon
# NCI-H460 lung = tested on: NCI-H460 lung
# SF-268 CNS = tested on: SF-268 CNS
# A549 NSCLC = tested on: A549 NSCLC
# LXFL 529 NSCLC = tested on: LXFL 529 NSCLC
# NCI-H226 lung = tested on: NCI-H226 lung
# DMS 273 small cell lung = tested on: DMS 273 small cell lung
# A498 renal = tested on: A498 renal
# HOP-62 NSCLC = tested on: HOP-62 NSCLC
# SK-OV-3 ovarian = tested on: SK-OV-3 ovarian
# RPMI-8226 leukemia = tested on: RPMI-8226 leukemia
# HCT-15 colon = tested on: HCT-15 colon
# SN12C renal = tested on: SN12C renal
# SNB-78 CNS = tested on: SNB-78 CNS
# OVCAR-5 ovarian = tested on: OVCAR-5 ovarian
# UACC-257 melanoma = tested on: UACC-257 melanoma
# IGROV1 ovarian = tested on: IGROV1 ovarian
# SR leukemia = tested on: SR leukemia
# OVCAR-4 ovarian = tested on: OVCAR-4 ovarian
# LOX IMVI melanoma = tested on: LOX IMVI melanoma
# TK-10 renal = tested on: TK-10 renal
# SW-620 colon = tested on: SW-620 colon
# UACC-62 melanoma = tested on: UACC-62 melanoma
# XF 498 CNS = tested on: XF 498 CNS
# HCC-2998 colon = tested on: HCC-2998 colon
# SK-MEL-5 melanoma = tested on: SK-MEL-5 melanoma
# OVCAR-3 ovarian = tested on: OVCAR-3 ovarian
# ACHN renal = tested on: ACHN renal
# HL-60(TB) leukemia = tested on: HL-60(TB) leukemia
# K-562 leukemia = tested on: K-562 leukemia
# KM20L2 colon = tested on: KM20L2 colon
# SF-539 CNS = tested on: SF-539 CNS
# SNB-19 CNS = tested on: SNB-19 CNS
# HOP-18 NSCLC = tested on: HOP-18 NSCLC
# UO-31 renal = tested on: UO-31 renal
# MALME-3M melanoma = tested on: MALME-3M melanoma
# DLD-1 colon = tested on: DLD-1 colon
# CAKI-1 renal = tested on: CAKI-1 renal
# M19-MEL melanoma = tested on: M19-MEL melanoma
# EKVX NSCLC = tested on: EKVX NSCLC
# 786-0 renal = tested on: 786-0 renal
# SNB-75 CNS = tested on: SNB-75 CNS
# CCRF-CEM leukemia = tested on: CCRF-CEM leukemia
# SF-295 CNS = tested on: SF-295 CNS
# DMS 114 small cell lung = tested on: DMS 114 small cell lung
structure (smiles),measurement,setting,value
CN(C(=O)C12C3C4C1C1C2C3C41I)C(C)(C)C (configuration not stated),TGI,MOLT-4 leukemia,> 47.3 µM
same,TGI,HT29 colon,> 100 µM
same,TGI,NCI-H23 lung,> 100 µM
same,TGI,HCT-116 colon,> 100 µM
same,TGI,RXF-631 renal,> 100 µM
same,TGI,M14 melanoma,> 100 µM
same,TGI,NCI-H522 lung,> 100 µM
same,TGI,U251 CNS,> 100 µM
same,TGI,KM12 colon,> 100 µM
same,TGI,OVCAR-8 ovarian,> 100 µM
same,TGI,SK-MEL-28 melanoma,> 100 µM
same,TGI,SK-MEL-2 melanoma,> 100 µM
same,TGI,COLO 205 colon,> 100 µM
same,TGI,NCI-H460 lung,> 100 µM
same,TGI,SF-268 CNS,> 100 µM
same,TGI,A549 NSCLC,> 100 µM
same,TGI,LXFL 529 NSCLC,> 100 µM
same,TGI,NCI-H226 lung,> 94.6 µM
same,TGI,DMS 273 small cell lung,> 100 µM
same,TGI,A498 renal,> 100 µM
same,TGI,HOP-62 NSCLC,> 100 µM
same,TGI,SK-OV-3 ovarian,> 100 µM
same,TGI,RPMI-8226 leukemia,> 100 µM
same,TGI,HCT-15 colon,> 100 µM
same,TGI,SN12C renal,> 100 µM
same,TGI,SNB-78 CNS,> 100 µM
same,TGI,OVCAR-5 ovarian,> 100 µM
same,TGI,UACC-257 melanoma,> 100 µM
same,TGI,IGROV1 ovarian,> 100 µM
same,TGI,SR leukemia,> 31.6 µM
same,TGI,OVCAR-4 ovarian,> 100 µM
same,TGI,LOX IMVI melanoma,> 100 µM
same,TGI,TK-10 renal,> 100 µM
same,TGI,SW-620 colon,> 100 µM
same,TGI,UACC-62 melanoma,> 100 µM
same,TGI,XF 498 CNS,> 100 µM
same,TGI,HCC-2998 colon,> 100 µM
same,TGI,SK-MEL-5 melanoma,> 100 µM
same,TGI,OVCAR-3 ovarian,> 100 µM
same,TGI,ACHN renal,> 100 µM
same,TGI,HL-60(TB) leukemia,> 92.7 µM
same,TGI,K-562 leukemia,> 100 µM
same,TGI,KM20L2 colon,> 100 µM
same,TGI,SF-539 CNS,> 100 µM
same,TGI,SNB-19 CNS,> 100 µM
same,TGI,HOP-18 NSCLC,> 100 µM
same,TGI,UO-31 renal,> 100 µM
same,TGI,MALME-3M melanoma,> 100 µM
same,TGI,DLD-1 colon,> 100 µM
same,TGI,CAKI-1 renal,> 100 µM
same,TGI,M19-MEL melanoma,> 100 µM
same,TGI,EKVX NSCLC,> 100 µM
same,TGI,786-0 renal,> 100 µM
same,TGI,SNB-75 CNS,> 100 µM
same,TGI,CCRF-CEM leukemia,> 43 µM
same,TGI,SF-295 CNS,> 100 µM
same,TGI,DMS 114 small cell lung,> 100 µM
